± gives the standard deviation of the averaged measurements.
Experiments:
Experiment in all cases: EC50 for viability (resazurin, 96 h)
HCT116 = details: RPMI+GlutaMAX (10% FBS, 1% P/S)
SW620 MTHFD2-/- = details: RPMI+GlutaMAX (5% dFBS, 1% P/S)
SW620 WT = test system: SW620 WT
SW620 = test system: SW620
SW620 MTHFD2 -/- = test system: SW620 MTHFD2 -/-
[1] = metabolite supplement: Hypoxanthine
[2] = RPMI+GlutaMAX (5% dFBS, 1% P/S), metabolite supplement: Hypoxanthine
[3] = RPMI+GlutaMAX (5% dFBS, 1% P/S), metabolite supplement: Sodium Formate
[4] = RPMI+GlutaMAX (5% dFBS, 1% P/S), metabolite supplement: Thymidine
[5] = RPMI+GlutaMAX (5% dFBS, 1% P/S), metabolite supplement: Thymidine + Sodium Formate
[6] = RPMI+GlutaMAX (5% dFBS, 1% P/S), metabolite supplement: Vehicle
[7] = RPMI+GlutaMAX (10% FBS, 1% P/S), metabolite supplement: None
[8] = RPMI+GlutaMAX (10% dFBS, 1% P/S), metabolite supplement: None

Structure (SMILES): Nc1nc(N)c(CC(=O)Nc2cnc(C(=O)N[C@@H](CCC(=O)O)C(=O)O)c(F)c2)c(=O)[nH]1 [TH9619]
- EC50 for viability (HCT116; [1]): 13.5 nM
- EC50 for viability (HCT116; metabolite supplement: Thymidine): 1190 nM
- EC50 for viability (SW620 MTHFD2-/-; [1]): 4230 nM
- EC50 for viability (SW620 MTHFD2-/-; metabolite supplement: Hypoxanthine + Formate): 30.1 nM
- EC50 for viability (SW620 WT; RPMI+GlutaMAX (5% dFBS, 1% P/S), metabolite supplement: Adenine): 18.9 nM
- EC50 for viability (SW620 WT; RPMI+GlutaMAX (5% dFBS, 1% P/S), metabolite supplement: Adenosine): 18.3 nM
- EC50 for viability (SW620 WT; RPMI+GlutaMAX (5% dFBS, 1% P/S), metabolite supplement: Guanosine): 24.2 nM
- EC50 for viability (SW620 WT; [2]): 19.5 ± 4.7 nM
- EC50 for viability (SW620 WT; RPMI+GlutaMAX (5% dFBS, 1% P/S), metabolite supplement: Hypoxanthine + AICAr 10 µM): 19.7 nM
- EC50 for viability (SW620 WT; RPMI+GlutaMAX (5% dFBS, 1% P/S), metabolite supplement: Hypoxanthine + AICAr 30 µM): 30.3 nM
- EC50 for viability (SW620 WT; RPMI+GlutaMAX (5% dFBS, 1% P/S), metabolite supplement: Hypoxanthine + AICAr 50 µM): 75.9 nM
- EC50 for viability (SW620 WT; RPMI+GlutaMAX (5% dFBS, 1% P/S), metabolite supplement: Hypoxanthine + AICAr 100 µM): 1670 nM
- EC50 for viability (SW620 WT; [3]): 944 nM
- EC50 for viability (SW620 WT; [4]): 1900 ± 1300 nM
- EC50 for viability (SW620 WT; [5]): > 10000 nM
- EC50 for viability (SW620 WT; [6]): 861 ± 380 nM
- EC50 for viability (SW620 WT; RPMI+GlutaMAX (5% dFBS, 1% P/S, 10 uM Hypoxanthine), metabolite supplement: Thymidine 0.1 uM): 18.9 nM
- EC50 for viability (SW620 WT; RPMI+GlutaMAX (5% dFBS, 1% P/S, 10 uM Hypoxanthine), metabolite supplement: Thymidine 0.5 uM): 66.9 nM
- EC50 for viability (SW620 WT; RPMI+GlutaMAX (5% dFBS, 1% P/S, 10 uM Hypoxanthine), metabolite supplement: Thymidine 1uM): 3910 nM
- EC50 for viability (SW620 WT; RPMI+GlutaMAX (5% dFBS, 1% P/S, 10 uM Hypoxanthine), metabolite supplement: Thymidine 5uM): > 10000 nM
- EC50 for viability (SW620 WT; RPMI+GlutaMAX (5% dFBS, 1% P/S, 10 uM Hypoxanthine), metabolite supplement: Thymidine 10 uM): > 10000 nM
- EC50 for viability (SW620 WT; RPMI+GlutaMAX (5% dFBS, 1% P/S, 10 uM Hypoxanthine), metabolite supplement: Thymidine 25 uM): > 10000 nM
- EC50 for viability (SW620 WT; RPMI+GlutaMAX (5% dFBS, 1% P/S, 10 uM Hypoxanthine), metabolite supplement: Thymidine 50 uM): > 10000 nM
- EC50 for viability (SW620 WT; RPMI+GlutaMAX (5% dFBS, 1% P/S, 50 uM Hypoxanthine), metabolite supplement: Thymidine 0.1 uM): 17.4 nM
- EC50 for viability (SW620 WT; RPMI+GlutaMAX (5% dFBS, 1% P/S, 50 uM Hypoxanthine), metabolite supplement: Thymidine 0.5 uM): 26.3 nM
- EC50 for viability (SW620 WT; RPMI+GlutaMAX (5% dFBS, 1% P/S, 50 uM Hypoxanthine), metabolite supplement: Thymidine 1uM): 31.9 nM
- EC50 for viability (SW620 WT; RPMI+GlutaMAX (5% dFBS, 1% P/S, 50 uM Hypoxanthine), metabolite supplement: Thymidine 5uM): > 10000 nM
- EC50 for viability (SW620 WT; RPMI+GlutaMAX (5% dFBS, 1% P/S, 50 uM Hypoxanthine), metabolite supplement: Thymidine 10 uM): > 10000 nM
- EC50 for viability (SW620 WT; RPMI+GlutaMAX (5% dFBS, 1% P/S, 50 uM Hypoxanthine), metabolite supplement: Thymidine 25 uM): > 10000 nM
- EC50 for viability (SW620 WT; RPMI+GlutaMAX (5% dFBS, 1% P/S, 50 uM Hypoxanthine), metabolite supplement: Thymidine 50 uM): > 10000 nM
- EC50 for viability (SW620 WT; [7]): 32.9 nM
- EC50 for viability (SW620 WT; [8]): 4.93 nM
- EC50 for viability (SW620; HPLM (5% dFBS, 1% P/S), metabolite supplement: Vehicle): 11.3 nM
- EC50 for viability (SW620; RPMI+GlutaMAX (5% FBS, 1% P/S), metabolite supplement: Vehicle): 24.9 nM
- EC50 for viability (SW620; RPMI+GlutaMAX (5% dFBS, 1% P/S), metabolite supplement: 0 nM Pyrazofurin): 1030 nM
- EC50 for viability (SW620; RPMI+GlutaMAX (5% dFBS, 1% P/S), metabolite supplement: 25 nM Pyrazofurin): 1160 nM
- EC50 for viability (SW620; RPMI+GlutaMAX (5% dFBS, 1% P/S), metabolite supplement: 50 nM Pyrazofurin): 365 nM
- EC50 for viability (SW620; RPMI+GlutaMAX (5% dFBS, 1% P/S), metabolite supplement: 0.5 µM Hypoxanthine): 287 nM
- EC50 for viability (SW620; RPMI+GlutaMAX (5% dFBS, 1% P/S), metabolite supplement: 1.0 µM Hypoxanthine): 75.5 nM
- EC50 for viability (SW620; RPMI+GlutaMAX (5% dFBS, 1% P/S), metabolite supplement: 5.0 µM Hypoxanthine): 14.1 nM
- EC50 for viability (SW620; RPMI+GlutaMAX (5% dFBS, 1% P/S), metabolite supplement: 10 µM Hypoxanthine): 13.2 nM
- EC50 for viability (SW620; RPMI+GlutaMAX (5% dFBS, 1% P/S), metabolite supplement: 25 µM Hypoxanthine): 14.6 nM
- EC50 for viability (SW620; RPMI+GlutaMAX (5% dFBS, 1% P/S), metabolite supplement: 50 µM Hypoxanthine): 13.9 ± 2.2 nM
- EC50 for viability (SW620; RPMI+GlutaMAX (5% dFBS, 1% P/S), metabolite supplement: 12,5 nM Pyrazofurin): 1420 nM
- EC50 for viability (SW620; RPMI+GlutaMAX (5% dFBS, 1% P/S), metabolite supplement: Allopurinol): 312 nM
- EC50 for viability (SW620; RPMI+GlutaMAX (5% dFBS, 1% P/S), metabolite supplement: Allopurinol + Hypoxanthine): 15.5 nM
- EC50 for viability (SW620; RPMI+GlutaMAX (5% dFBS, 1% P/S), metabolite supplement: Deoxyuridine): 267 nM
- EC50 for viability (SW620; RPMI+GlutaMAX (5% dFBS, 1% P/S), metabolite supplement: Deoxyuridine + Hypoxanthine): 9.78 nM
- EC50 for viability (SW620; RPMI+GlutaMAX (5% dFBS, 1% P/S), metabolite supplement: Febuxostat): 766 nM
- EC50 for viability (SW620; RPMI+GlutaMAX (5% dFBS, 1% P/S), metabolite supplement: Febuxostat + Hypoxanthine): 25.2 nM
- EC50 for viability (SW620; RPMI+GlutaMAX (5% dFBS, 1% P/S), metabolite supplement: H2O2): 406 nM
- EC50 for viability (SW620; RPMI+GlutaMAX (5% dFBS, 1% P/S), metabolite supplement: H2O2 + Hypoxanthine): 16.3 nM
- EC50 for viability (SW620; [2]): 15.4 ± 2.1 nM
- EC50 for viability (SW620; RPMI+GlutaMAX (5% dFBS, 1% P/S), metabolite supplement: Orotic acid): 309 nM
- EC50 for viability (SW620; RPMI+GlutaMAX (5% dFBS, 1% P/S), metabolite supplement: Orotic acid + Hypoxanthine): 12.8 nM
- EC50 for viability (SW620; RPMI+GlutaMAX (5% dFBS, 1% P/S), metabolite supplement: Uric acid): 502 nM
- EC50 for viability (SW620; [6]): 400 ± 150 nM
- EC50 for viability (SW620; RPMI+GlutaMAX (5% dFBS, 1% P/S, 50 µM Hypoxanthine), metabolite supplement: 0): 13.3 nM
- EC50 for viability (SW620; RPMI+GlutaMAX (10% FBS, 1% P/S), metabolite supplement: Folic acid): 4000 nM
- EC50 for viability (SW620; RPMI+GlutaMAX (10% FBS, 1% P/S), metabolite supplement: Folinic acid): > 10000 nM
- EC50 for viability (SW620; RPMI+GlutaMAX (10% FBS, 1% P/S), metabolite supplement: Hypoxanthine): 13.6 nM
- EC50 for viability (SW620; RPMI+GlutaMAX (10% FBS, 1% P/S), metabolite supplement: Sodium Formate): 15.3 nM
- EC50 for viability (SW620; RPMI+GlutaMAX (10% FBS, 1% P/S), metabolite supplement: Thymidine): 516 ± 78 nM
- EC50 for viability (SW620; RPMI+GlutaMAX (10% FBS, 1% P/S), metabolite supplement: Thymidine + Folic acid): 8880 nM
- EC50 for viability (SW620; RPMI+GlutaMAX (10% FBS, 1% P/S), metabolite supplement: Thymidine + Sodium Formate): 538 nM
- EC50 for viability (SW620; RPMI+GlutaMAX (10% FBS, 1% P/S), metabolite supplement: Vehicle): 22.6 ± 3.4 nM
- EC50 for viability (SW620 MTHFD2 -/-; [2]): 25 nM
- EC50 for viability (SW620 MTHFD2 -/-; [3]): 6.43 nM
- EC50 for viability (SW620 MTHFD2 -/-; [4]): 0.821 ± 0.6 nM
- EC50 for viability (SW620 MTHFD2 -/-; [5]): > 10000 nM
- EC50 for viability (SW620 MTHFD2 -/-; [6]): 1.03 ± 0.77 nM
- EC50 for viability (SW620 MTHFD2 -/-; [7]): 2.82 nM
- EC50 for viability (SW620 MTHFD2 -/-; [8]): 993 nM
